From patent US4831026A, “2-oxa-isocephem compounds, compositions containing same and processes of using” (Otsuka Pharmaceutical Co., Ltd., priority 1985, dated 1989)
Like-named read-outs stand apart in the source and are kept apart here.

Legend:
[1] = tested on: S. aureus FDA-209-p; experiment: Antimicrobial activity test: MIC by the agar plate dilution method, S. aureus FDA-209-p; assay type: cell-based, Staphylococcus aureus; conditions: inoculum 1×10^6 cells/ml
Method: (§1) In order to investigate the in vitro activity of the under-mentioned compounds against various bacteria, the minimal inhibitory concentration (MIC) values were determined by the agar plate dilution method [see Chemotherapy, 22, 1126-1128 (1974)].
(§2) Each test inoculum was adjusted to 1×10^6 cells/ml (O.D., 600 mμ: 0.07-0.16).

[2] = tested on: E. coli No. 29; experiment: Antimicrobial activity test: MIC by the agar plate dilution method, E. coli No. 29; assay type: cell-based
Method: as §1, §2

[3] = tested on: K. pneumoniae NCTC-9632; experiment: Antimicrobial activity test: MIC by the agar plate dilution method, K. pneumoniae NCTC-9632; assay type: cell-based; conditions: inoculum 1×10^6 cells/ml
Method: as §1, §2

[4] = tested on: P. mirabilis 1287; experiment: Antimicrobial activity test: MIC by the agar plate dilution method, P. mirabilis 1287; assay type: cell-based
Method: as §1, §2

[5] = tested on: M. morganii ATCC-25830; experiment: Antimicrobial activity test: MIC by the agar plate dilution method, M. morganii ATCC-25830; assay type: cell-based; conditions: inoculum 1×10^6 cells/ml
Method: as §1, §2

[6] = tested on: S. marcescens IFO-12648; experiment: Antimicrobial activity test: MIC by the agar plate dilution method, S. marcescens IFO-12648; assay type: cell-based
Method: as §1, §2

[7] = tested on: P. aeruginosa NCTC-10490; experiment: Antimicrobial activity test: MIC by the agar plate dilution method, P. aeruginosa NCTC-10490; assay type: cell-based; conditions: inoculum 1×10^6 cells/ml
Method: as §1, §2

[8] = E. coli No. 29, inoculum 1×10^6 cells/ml
[9] = P. mirabilis 1287, inoculum 1×10^6 cells/ml
[10] = S. marcescens IFO-12648, inoculum 1×10^6 cells/ml

Substance: Benzhydryl 7-[2-(2-tritylaminothiazol-4-yl)-2-cyclopropylmethyloxyiminoacetamido-]-3- (1,3,4-thiadiazol-2-yl)thiomethyl]-Δ^3 -O-2-isocephem-4-carboxylate (syn-isomer) [Example 35]
- MIC [1]: 0.2 µg/mL
- MIC [2, 8]: 0.2 µg/mL
- MIC [3]: 0.2 µg/mL
- MIC [4, 9]: 0.2 µg/mL
- MIC [5]: 0.39 µg/mL
- MIC [6]: 0.39 µg/mL
- MIC [7]: 0.39 µg/mL

Substance: Benzyl 7-[2-(2-trifluoroacetamidothiazol-4-yl)-2-methoxyiminoacetamido]-3-[(carbamoyloxy)methyl]-Δ^3 -O-2-isocephem-4-carboxylate (syn-isomer) [Example 4]
- MIC [1]: 0.78 µg/mL
- MIC [2, 8]: 0.05 µg/mL
- MIC [3]: 0.1 µg/mL
- MIC [4, 9]: ≤ 0.025 µg/mL
- MIC [5]: ≤ 0.025 µg/mL
- MIC [6, 10]: 0.2 µg/mL
- MIC [7]: 6.25 µg/mL

Substance: Benzyl7-[2-(2-aminothiazol-4-yl)-2-methoxyiminoacetamido]-3-[(carbamoyloxy)methyl]-Δ^3 -O-2-isocephem-4-carboxylate (syn-isomer) [Example 3]
- MIC [1]: 0.39 µg/mL
- MIC [2, 8]: 0.2 µg/mL
- MIC [3]: 0.39 µg/mL
- MIC [4, 9]: ≤ 0.025 µg/mL
- MIC [5]: ≤ 0.025 µg/mL
- MIC [6]: 0.39 µg/mL
- MIC [7]: 1.56 µg/mL

Substance: 7-[2-(2-Chloroacetamidothiazol-4-yl)-2-methoxyiminoacetamido]-3-[(1,4,5,6-tetrahydro-4-methyl-5,6-dioxo-1,2,4-triazin-3-yl)thiomethyl]-Δ^3 -O-2-isocephem-4-carboxylic acid (syn-isomer) [Example 17]
- MIC [1]: 0.2 µg/mL
- MIC [2, 8]: ≤ 0.025 µg/mL
- MIC [3]: ≤ 0.025 µg/mL
- MIC [4, 9]: ≤ 0.025 µg/mL
- MIC [5]: ≤ 0.025 µg/mL
- MIC [6, 10]: ≤ 0.025 µg/mL
- MIC [7]: 6.25 µg/mL

Substance: 7-2-(Thiazol-4-yl)-2-tert-butoxycarbonylmethoxyiminoacetamido]-Δ^3 -O-2-isocephem-4-carboxylic acid (syn-isomer) [Example 19]
- MIC [1]: 0.39 µg/mL
- MIC [2, 8]: ≤ 0.025 µg/mL
- MIC [3]: ≤ 0.025 µg/mL
- MIC [4, 9]: ≤ 0.025 µg/mL
- MIC [5]: ≤ 0.025 µg/mL
- MIC [6, 10]: 0.05 µg/mL
- MIC [7]: 3.13 µg/mL

Substance: 7-[2-(2-Chloroacetamidothiazol-4-yl)-2-allyloxyiminoacetamido]-3-[(1,3,4-thiadiazol-2-yl)thiomethyl]-Δ^3 -O-2-isocephem-4-carboxylic acid (syn-isomer) [Example 15]
- MIC [1]: 0.39 µg/mL
- MIC [2, 8]: ≤ 0.025 µg/mL
- MIC [3]: 0.1 µg/mL
- MIC [4, 9]: ≤ 0.025 µg/mL
- MIC [5]: ≤ 0.025 µg/mL
- MIC [6, 10]: 0.1 µg/mL
- MIC [7]: 0.78 µg/mL

Substance: Benzyl 7-[2-(2-trichloroacetamidothiazol-4-yl)-2-methoxyiminoacetamido]-3-[(carbamoyloxy)methyl]-Δ^3 -O-2-isocephem-4-carboxylate (syn-isomer) [Example 5]
- MIC [1]: 3.13 µg/mL
- MIC [2, 8]: 0.1 µg/mL
- MIC [3]: 0.1 µg/mL
- MIC [4, 9]: ≤ 0.025 µg/mL
- MIC [5]: 0.05 µg/mL
- MIC [6, 10]: 0.2 µg/mL
- MIC [7]: 25 µg/mL

Substance: 7-[2-(2-Aminothiazol-4-yl)-2-(2-chloroethoxy)iminoacetamido]-3-[(1,3,4-thiadiazol-2-yl)thiomethyl]-Δ^3 -O-2-isocephem-4-carboxylic acid (syn-isomer) [No. 9]
- MIC [1]: 0.05 µg/mL
- MIC [2, 8]: 0.2 µg/mL
- MIC [3]: 0.39 µg/mL
- MIC [4]: 0.39 µg/mL
- MIC [5]: 0.78 µg/mL
- MIC [6]: 0.78 µg/mL
- MIC [7]: 0.78 µg/mL

Substance: 1-Acetoxyethyl 7-[2-(2-aminothiazol-4-yl)-2-methoxyiminoacetamido]-3-[(1,3,4-thiadiazol-2-yl)thiomethyl]-Δ^3 -O-2-isocephem-4-carboxylate (syn-isomer) [Example 13]
- MIC [1]: 0.39 µg/mL
- MIC [2]: 0.39 µg/mL
- MIC [3]: 0.78 µg/mL
- MIC [4, 9]: 0.1 µg/mL
- MIC [5]: 0.39 µg/mL
- MIC [6]: 0.78 µg/mL
- MIC [7]: 0.78 µg/mL

Substance: 7-[2-(Thiazol-4-yl)-2-carboxymethoxyiminoacetamido]-Δ^3 -O-2-isocephem-4-carboxylic acid (syn-isomer) [No. 6]
- MIC [1]: 0.39 µg/mL
- MIC [2, 8]: 0.1 µg/mL
- MIC [3]: 0.2 µg/mL
- MIC [4, 9]: ≤ 0.025 µg/mL
- MIC [5]: 0.05 µg/mL
- MIC [6, 10]: 0.2 µg/mL
- MIC [7]: 12.5 µg/mL

Substance: 7-[2-(2-Chloroacetamidothiazol-4-yl)-2-methoxyiminoacetamido]-3-[(carbamoyloxy)methyl]-Δ^3 -O-2-isocephem-4-carboxylic acid (syn-isomer) [Example 8]
- MIC [1]: 0.78 µg/mL
- MIC [2, 8]: 0.2 µg/mL
- MIC [3]: 0.2 µg/mL
- MIC [4, 9]: 0.05 µg/mL
- MIC [5]: 0.1 µg/mL
- MIC [6]: 0.39 µg/mL
- MIC [7]: 1.56 µg/mL

Substance: Benzhydryl (6S,7S)-7-[2-(2-aminothiazol-4-yl)-2-methoxyiminoacetamido]-3-[(1,3,4-thiadiazol-2-yl)thiomethyl]-Δ^3 -O-2-isocephem-4-carboxylate (syn-isomer) [Example 59]
- MIC [1]: 0.39 µg/mL
- MIC [2, 8]: ≤ 0.025 µg/mL
- MIC [3]: ≤ 0.025 µg/mL
- MIC [4, 9]: ≤ 0.025 µg/mL
- MIC [5]: ≤ 0.025 µg/mL
- MIC [6]: 0.39 µg/mL
- MIC [7]: 25 µg/mL

Substance: Benzhydryl 7-[2-(2-tritylaminothiazol-4-yl)-2cyanomethyloxyiminoacetamido-]-3-[(1,3,4-thiadiazol-2-yl)thiomethyl]-Δ^3 -O-2-isocephem-4-carboxylate (syn-isomer) [Example 41]
- MIC [1]: 0.39 µg/mL
- MIC [2, 8]: 0.2 µg/mL
- MIC [3]: 0.39 µg/mL
- MIC [4, 9]: 0.2 µg/mL
- MIC [5]: 0.78 µg/mL
- MIC [6, 10]: 1.56 µg/mL
- MIC [7]: 0.78 µg/mL

Substance: Benzhydryl 7-[2-(2-tritylaminothiazol-4-yl)-2-(2fluoroethoxy)iminoacetamido-]-3-[(1,3,4-thiadiazol-2-yl)thiomethyl]-Δ^3 -O-2-isocephem-4-carboxylate (syn-isomer) [Example 48]
- MIC [1]: 0.78 µg/mL
- MIC [2, 8]: ≤ 0.025 µg/mL
- MIC [3]: 0.2 µg/mL
- MIC [4, 9]: ≤ 0.025 µg/mL
- MIC [5]: ≤ 0.025 µg/mL
- MIC [6]: 0.39 µg/mL
- MIC [7]: 6.25 µg/mL

Substance: 7-[2-(2-Chloroacetamidothiazol-4-yl)-2-cyclopentyloxyiminoacetamido]-3-[(1,3,4-thiadiazol-2-yl)thiomethyl]-Δ^3 -O-2-isocephem-4-carboxylic acid (syn-isomer) [Example 26]
- MIC [1]: 0.2 µg/mL
- MIC [2, 8]: 0.05 µg/mL
- MIC [3]: 0.2 µg/mL
- MIC [4, 9]: ≤ 0.025 µg/mL
- MIC [5]: 0.05 µg/mL
- MIC [6]: 0.39 µg/mL
- MIC [7]: 0.39 µg/mL
